Read-outs that look alike come from different tables or passages of the source. Where no end group is shown, it is not given here.
Assays:
[1] = tested on: P. aeruginosa (ATCC 27883); test: MIC, standard microtiter dilution (CLSI); type: cell-based, Pseudomonas aeruginosa; details: broth microdilution (CLSI), CAMHB, 37 °C, 24 h
Experimental: (§1) Description of the characteristics and growth conditions of various bacterial strains used in the study are provided in the Supporting Information (Table S3). Antibacterial susceptibility testing was carried out using a standard microtiter dilution method recommended by the clinical and laboratory standard institute (CLSI) and measured as a minimum inhibitory concentration (MIC), the lowest peptide concentration that inhibited bacterial growth. Briefly, the overnight grown cultures in the recommended broth for each bacterial strain were diluted in cation-adjusted Mueller Hinton Broth (CAMHB) to give an inoculum of 10^6 colony-forming units (CFU)/mL. A 2-fold serially diluted test peptide solution (100 μL) was added to the microtiter plates. After adding bacterial suspension (100 μL), the plates were incubated at 37 °C for 24 h, and the MICs were determined. The same protocol was used to determine the MICs in the presence of salts and serum except using the media supplemented with various cationic salts (150 mM NaCl, 4.5 mM KCl, 6 mM NH4Cl, 1 mM MgCl2, and 2 mM CaCl2) or 25% FBS. The data was acquired from three independent assays performed in triplicate.
(§2) The bacterial strains employed in this study were obtained from the American Type Culture Collection (ATCC). Each strain was propagated as recommended by the ATCC, and each strain was stored as a frozen glycerol stock at -80°C. A bacterial colony was grown on the appropriate agar as indicated in Table S1 and was used to inoculate the appropriate broth. The culture was incubated at the appropriate conditions, as mentioned in Table S1. Following the incubation, the culture was diluted to an optical density 625 nm (OD625) of 0.1 in cation adjusted Mueller Hinton Broth (CAMHB), which is equivalent to 1 × 10^8 CFU/mL. The culture was further diluted to 1 × 10^6 CFU/mL, which was used to conduct the MIC determination assay. For the S. pneumoniae strains, CAMHB + 2.5% lysed horse blood was required for the assay. The strains with their […]
(§3) Table S3. Description of the characteristics and growth conditions of various bacterial strains

[2] = tested on: K. pneumoniae (ATCCBAA-1705); test: MIC, standard microtiter dilution (CLSI); type: cell-based, Klebsiella pneumoniae; details: broth microdilution (CLSI), CAMHB, 37 °C, 24 h
Experimental: as §1, §2, §3

[3] = CD spectroscopy, helicity; type: physicochemical; parameters: key to Δ[θ]222 induced by TFE / Δ[θ]222 induced by Liposomes: mean residue molar ellipticity, mdeg cm2/(dmol × res); details: for [θ]222 mean residue molar ellipticity, TFE / [θ]222 mean residue molar ellipticity, Liposomes / [θ]222 mean residue molar ellipticity, PBS: CD at 222 nm, 25 °C; for [θ]222 mean residue molar ellipticity, TFE: aqueous buffer containing 50% TFE; for [θ]222 mean residue molar ellipticity, Liposomes / Δ[θ]222 induced by Liposomes: bacterial membrane mimicking liposomes; for [θ]222 mean residue molar ellipticity, Liposomes: peptide:lipid molar ratio 1:1.05; for [θ]222 mean residue molar ellipticity, PBS: phosphate buffer saline pH 7.0; for Δ[θ]222 induced by TFE / Δ[θ]222 induced by Liposomes: difference to PBS; for Δ[θ]222 induced by TFE: 50% TFE; for % of helicity induced by TFE: increase in molar ellipticity at 222 nm in the presence of 50% TFE; for % of helicity induced by Liposomes: increase in molar ellipticity at 222 nm in the presence of liposomes;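 on % of helicity induced by Liposomes: share of the total helicity with liposomes gained over the same peptide in PBS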;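 on % of helicity induced by TFE: share of the total helicity in TFE gained over the same peptide in PBS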
Experimental: The CD spectra of peptides were recorded using a Jasco J-1500 CD spectrophotometer (Jasco, Easton, MD) at 25 °C with a 1 mm path length cell. Wavelengths from 190 to 260 nm were scanned with 1.0 nm step resolution, 100 nm/min speed, 0.4 s response time, and 1 nm bandwidth. CD spectra of the peptides were collected and averaged over three scans in 10 mM sodium phosphate buffer (pH 7.2), helix-inducing solvent 50% TFE (v/v), and bacterial mimic liposomes (75 μM lipid). Spectra were corrected by subtracting a baseline spectrum containing only buffer or 50% TFE or liposomes. The mean residue molar ellipticity was calculated using the formula [drawing 3] where Ab222 is the absorbance observed at 222 nm, MRW is the mean residue molecular weight, C is the concentration in mg/mL, and L is the path length.
Table S1. RP-HPLC retention times and CD spectroscopy analysis of the selected peptides Peptide tR (min)a [θ]222b Δ[θ]222 induced by % of helicity inducedc by PBS TFE Liposomes TFE Liposomes TFE Liposomes […]
atR (min) denotes the retention time at 25°C by RP-HPLC. bThe mean residue molar ellipticity [θ] 222 (mdeg cm2/(dmol × res)) at 222 nm was measured at 25 °C in phosphate buffer saline (PBS, pH 7.0), in aqueous buﬀer containing 50% TFE (TFE), or in presence of bacterial membrane mimicking liposomes (peptide:lipid […]
c% helix induced is the increase in the molar ellipticity at 222 nm (in percentage) of a peptide in the presence of TFE or liposomes.

[4] = tested on: E. coli (ATCC 25922); details: broth microdilution (CLSI), CAMHB, 37 °C, 24 h
Experimental: as §1, §2, §3

[5] = tested on: MRSA (ATCC BAA-1556); details: broth microdilution (CLSI), CAMHB, 37 °C, 24 h
Experimental: as §1, §2, §3

[6] = tested on: S. aureus (ATCC 29213); test: MIC, standard microtiter dilution (CLSI); type: cell-based; details: broth microdilution (CLSI), CAMHB, 37 °C, 24 h
Experimental: as §1, §2, §3

[7] = tested on: human red blood cells (hRBCs); test: Hemolytic assay; type: cell-based; details: 2 h, 37 °C
Experimental: The hemolytic activity of all peptides (1a–8d) was determined using hRBC. The assay was conducted by adding 75 μL of 2-fold serially diluted peptides to 75 μL of hRBC suspension (4% in PBS). The plates were incubated for 2 h at 37 °C without agitation. In order to determine the hemolysis at each tested concentration of peptides, the plate was centrifuged, and 100 μL of the supernatant was transferred to another 96-well plate to determine hemoglobin release spectrophotometrically at 567 nm. Percent hemolysis was calculated by the following formula [drawing 1] where A represents the absorbance of the peptide sample at 567 nm and A0 and At represent zero percent and 100% hemolysis determined in phosphate buffer saline and 1% Triton X-100, respectively.

[8] = 10^6 CFU/mL, highest MIC of three independent experiments in triplicate
[9] = hRBC suspension 4% in PBS, hemoglobin release at 567 nm, 1% Triton X-100 = 100%
[10] = value in parentheses (μM), hRBC 4% in PBS, 567 nm

Substance	MIC, P. aeruginosa (ATCC 27883) [1, 8]	MIC, P. aeruginosa (ATCC 27883) ([1]; value in parentheses (μM))	MIC, K. pneumoniae (ATCCBAA-1705) [2, 8]	MIC, K. pneumoniae (ATCCBAA-1705) ([2]; value in parentheses (μM))	[θ]222 mean residue molar ellipticity, TFE [3]	[θ]222 mean residue molar ellipticity, Liposomes [3]	[θ]222 mean residue molar ellipticity, PBS [3]	Δ[θ]222 induced by TFE [3]	Δ[θ]222 induced by Liposomes [3]	% of helicity induced by TFE [3]	% of helicity induced by Liposomes [3]	MIC, E. coli (ATCC 25922) [4, 8]	MIC, E. coli (ATCC 25922) ([4]; value in parentheses (μM))	MIC, MRSA (ATCC BAA-1556) [5, 8]	MIC, MRSA (ATCC BAA-1556) ([5]; value in parentheses (μM))	MIC, S. aureus (ATCC 29213) [6, 8]	MIC, S. aureus (ATCC 29213) ([6]; value in parentheses (μM))	HC50 (concentration at which 50% hemolysis was observed) [7, 9]	HC50 (concentration at which 50% hemolysis was observed) [7, 10]
RAWRAWWRRA-NH2 [4f]	> 100 µg/mL	> 70.74 µM	> 100 µg/mL	> 70.74 µM	-7441 mdeg cm2/(dmol × res)	-4470 mdeg cm2/(dmol × res)	-3665 mdeg cm2/(dmol × res)	-3775	-805	50.73%	18.01%	> 100 µg/mL	> 70.74 µM	> 100 µg/mL	> 70.74 µM	> 100 µg/mL	> 70.74 µM	> 500 µg/mL	> 353.69 µM
RWWRRWAR-NH2 [2a]	> 100 µg/mL	> 78.65 µM	> 100 µg/mL	> 78.65 µM	-6217 mdeg cm2/(dmol × res)	-4556 mdeg cm2/(dmol × res)	-4051 mdeg cm2/(dmol × res)	-2165	-505	34.83%	11.08%	> 100 µg/mL	> 78.65 µM	> 100 µg/mL	> 78.65 µM	> 100 µg/mL	> 78.65 µM	> 500 µg/mL	> 393.23 µM
RWWRRAWAR-NH2 [3e]	> 100 µg/mL	> 74.48 µM	> 100 µg/mL	> 74.48 µM	-8008 mdeg cm2/(dmol × res)	-4987 mdeg cm2/(dmol × res)	-4113 mdeg cm2/(dmol × res)	-3895	-874	48.63%	17.53%	> 100 µg/mL	> 74.48 µM	> 100 µg/mL	> 74.48 µM	> 100 µg/mL	> 74.48 µM	> 500 µg/mL	> 372.42 µM
RWLRRWLRWWR-NH2 [5d]	50 µg/mL	28.26 µM	50 µg/mL	28.26 µM	-10148 mdeg cm2/(dmol × res)	-5800 mdeg cm2/(dmol × res)	-4099 mdeg cm2/(dmol × res)	-6048	-1700	59.60%	29.31%	50 µg/mL	28.26 µM	25 µg/mL	14.13 µM	25 µg/mL	14.13 µM	130 µg/mL	73.48 µM
WRRWWRR-NH2 [1c]	> 100 µg/mL	> 83.30 µM	> 100 µg/mL	> 83.30 µM	-4646 mdeg cm2/(dmol × res)	-3092 mdeg cm2/(dmol × res)	-2638 mdeg cm2/(dmol × res)	-2008	-454	43.22%	14.68%	> 100 µg/mL	> 83.30 µM	100 µg/mL	83.30 µM	100 µg/mL	83.30 µM	> 500 µg/mL	> 416.52 µM

— publication PMC9841524, “Structure-Based Rational Design of Small α-Helical Peptides with Broad-Spectrum Activity against Multidrug-Resistant Pathogens” (Journal of Medicinal Chemistry, 2022)
